pIC50, pKi: −log10 of the molar value. Several values for one entry are separate records, joined by “and”; a condition that tells them apart may be missing. Equal entries are not always repeated.
What was measured:
Thymidylate synthase [1] = target: T1, Thymidylate synthase (Homo sapiens, UniProt P04818)
Description: Binding affinity against recombinant human thymidylate synthase

Thymidylate synthase [2] = target: T1, Thymidylate synthase; remark: listed apart in the source
Description: Binding affinity against recombinant thymidylate synthase in Escherichia coli

L1210 = assay: Inhibitory activity against murine L1210 leukemic cell lines.; details: Mus musculus
GC3/MTK- = assay: Inhibitory activity against GC3/M TK- human adreno carcinoma cell lines.
CCRF-CEM = assay: Inhibitory activity against human CCRF-CEM leukemic cell lines.

T1 sequence (P04818 whole entry): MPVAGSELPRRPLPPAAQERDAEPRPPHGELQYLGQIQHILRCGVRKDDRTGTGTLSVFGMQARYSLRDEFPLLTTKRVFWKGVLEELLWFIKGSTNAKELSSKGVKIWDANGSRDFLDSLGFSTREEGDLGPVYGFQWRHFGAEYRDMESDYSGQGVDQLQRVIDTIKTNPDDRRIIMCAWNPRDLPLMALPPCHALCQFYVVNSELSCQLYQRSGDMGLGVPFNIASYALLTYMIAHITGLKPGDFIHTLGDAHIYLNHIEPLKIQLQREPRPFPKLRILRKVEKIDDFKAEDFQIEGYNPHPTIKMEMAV

pKi (Thymidylate synthase [1]) | pKi (Thymidylate synthase [2]) | pIC50 (L1210) | pIC50 (GC3/MTK-) | pIC50 (CCRF-CEM) | Compound
7.30 and 6.92 | 7.06 and 6.54 | 5.68 | 5.38 | 5.85 | C#CCN(Cc1ccc2nc(C)nc(O)c2c1)c1ccc([S+]([O-])c2ccccc2)c(F)c1 (stereo not drawn)
– | – | – | 5.99 | – | C#CCN(Cc1ccc2nc(C)nc(O)c2c1)c1ccc(S(=O)(=O)c2ccccc2)cc1
7.70 and 7.34 | 7.37 and 7.13 | 5.92 | 5.55 | 5.70 | C#CCN(Cc1ccc2nc(C)nc(O)c2c1)c1ccc(S(=O)(=O)c2ccccc2)c(F)c1
7.35 and 7.11 | 6.60 and 6.11 | 5.77 | 5.40 | 5.46 | C#CCN(Cc1ccc2nc(C)nc(O)c2c1)c1ccc([S+]([O-])c2ccccc2C)cc1 (stereo not drawn)
7.21 and 6.96 | 6.80 and 6.26 | – | – | – | C#CCN(Cc1ccc2nc(C)[nH]c(=O)c2c1)c1ccc([S+]([O-])c2ccccc2)cc1 (stereo not drawn)
7.68 and 7.60 | 7.48 and 7.16 | 6.52 | 5.92 | 6.22 | C#CCN(Cc1ccc2nc(C)nc(O)c2c1)c1ccc(S(=O)(=O)c2ccccc2Cl)cc1
7.57 and 7.43 | 7.27 and 6.89 | 6.00 | 5.42 | 5.64 | C#CCN(Cc1ccc2nc(C)nc(O)c2c1)c1ccc([S+]([O-])c2ccccc2)c(Cl)c1 (stereo not drawn)
6.59 and 6.41 | 6.54 and 6.04 | 6.00 | 5.04 | 5.52 | C#CCN(Cc1ccc2nc(C)nc(O)c2c1)c1ccc([S+]([O-])c2ccccc2C)c(C(F)(F)F)c1 (stereo not drawn)
7.62 and 7.26 | 7.48 and 7.37 | 5.80 | 5.52 | 5.82 | C#CCN(Cc1ccc2nc(C)nc(O)c2c1)c1ccc(S(=O)(=O)c2ccccc2)c(Cl)c1
7.15 and 6.82 | 6.96 and 6.80 | 5.96 | 5.48 | 5.52 | C#CCN(Cc1ccc2nc(C)nc(O)c2c1)c1ccc([S+]([O-])c2ccccc2)c(C(F)(F)F)c1 (stereo not drawn)
7.59 and 7.24 | 7.25 and 6.80 | 6.22 | 5.47 | 5.57 | C#CCN(Cc1ccc2nc(C)nc(O)c2c1)c1ccc(S(=O)(=O)c2ccccc2C)cc1
6.82 and 6.42 | 6.80 and 6.41 | 6.00 | < 5.30 | 5.70 | C#CCN(Cc1ccc2nc(C)nc(O)c2c1)c1ccc(S(=O)(=O)c2ccccc2C)c(C(F)(F)F)c1
7.34 and 7.14 | 6.72 and 6.12 | 5.68 | 5.37 | 5.24 | C#CCN(Cc1ccc2nc(C)nc(O)c2c1)c1ccc([S+]([O-])c2ccccc2Cl)cc1 (stereo not drawn)

From ChEMBL document CHEMBL1129952, “Structure-based design of substituted diphenyl sulfones and sulfoxides as lipophilic inhibitors of thymidylate synthase” (J Med Chem, 1997)
